One assay has as its system Cough in Guinea Pigs. Also on record: species or system Dunkin Hartley guinea pigs. Conditions: guinea pig, in vivo.
Assay [1] has as its target T1, Delta opiate binding sites (Rattus norvegicus, UniProt P33533).
T1 construct: from tissue; host or cells: rat brain minus cerebellum, twice-washed P2 membrane fraction
Also noted: species or system Sprague-Dawley rats.

For another assay, the target named is T2, Mu opiate binding sites (Rattus norvegicus, UniProt P33535).
T2 construct: from tissue; host or cells: rat brain minus cerebellum, twice-washed P2 membrane fraction
T2 sequence (P33535 whole entry): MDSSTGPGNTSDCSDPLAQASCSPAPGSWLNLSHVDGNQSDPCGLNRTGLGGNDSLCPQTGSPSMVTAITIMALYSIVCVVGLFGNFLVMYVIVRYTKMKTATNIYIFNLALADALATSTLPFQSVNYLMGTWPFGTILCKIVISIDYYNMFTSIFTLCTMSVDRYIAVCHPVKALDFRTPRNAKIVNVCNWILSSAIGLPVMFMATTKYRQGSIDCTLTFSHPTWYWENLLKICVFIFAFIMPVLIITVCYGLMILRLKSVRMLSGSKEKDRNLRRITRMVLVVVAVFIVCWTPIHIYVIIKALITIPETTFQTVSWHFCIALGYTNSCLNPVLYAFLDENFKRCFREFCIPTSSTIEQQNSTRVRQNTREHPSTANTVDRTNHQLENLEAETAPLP
Also noted: species or system Sprague-Dawley rats.

Where two headings read alike, the source gives them in different places. Marks after values point to notes of the source that are not given here.

Results on two compounds are retold here after patent publication EP0418591B1 (priority 1989, dated 1991).

T1 sequence (P33533 whole entry): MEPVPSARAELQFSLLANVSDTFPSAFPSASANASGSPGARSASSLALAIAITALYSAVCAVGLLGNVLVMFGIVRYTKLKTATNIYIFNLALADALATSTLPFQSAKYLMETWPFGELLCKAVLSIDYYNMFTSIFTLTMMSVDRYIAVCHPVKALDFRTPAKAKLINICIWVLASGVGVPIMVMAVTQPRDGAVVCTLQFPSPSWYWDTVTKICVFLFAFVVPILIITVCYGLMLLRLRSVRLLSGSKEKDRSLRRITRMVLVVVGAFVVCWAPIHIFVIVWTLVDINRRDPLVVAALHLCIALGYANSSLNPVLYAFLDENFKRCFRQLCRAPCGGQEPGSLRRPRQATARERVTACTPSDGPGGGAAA

Compound `COc1ccc2c3c1O[C@H]1[C@@H](O)C=C[C@H]4[C@@H](C2)N(C)CC[C@@]341` [(-)-codeine] yielded an inhibition of cough in the assay on Cough in Guinea Pigs of 46%. Further, the “% Inhibition of Coughing 5 min” value in the assay on Cough in Guinea Pigs (po) is 42.7*** %; in the assay with Cough in Guinea Pigs (sc) it was 46.2*** %. Also, the “% Inhibition of Coughing 10 min” value in the assay on Cough in Guinea Pigs (po) is reported as 38.7*** %; in the assay on Cough in Guinea Pigs (sc) it was 46.1*** %.

Turning to `CC(C)C[C@H](NC(=O)[C@H](Cc1ccccc1)NC(=O)CNC(=O)[C@H](NC(=O)[C@@H](N)Cc1ccc(O)cc1)[C@H](C)O)C(=O)N[C@H](C(=O)O)[C@@H](C)O` [DTLET, D-Thr²-Leu-Enkephalin-Thr], the IC50 was determined as 2.7 nM in assay [1] (read-out: IC₅₀ Delta) and 184 nM on Mu opiate binding sites (read-out: IC₅₀ Mu). In addition, the values for the Ki (in assay [1] (read-out: Ki Delta); on Mu opiate binding sites (read-out: Ki Mu)) were 1.2 nM and 105 nM, respectively.
